Laboratory results published in patent US12454510B2, “Isophthalamide compound and use thereof” (METISA BIOTECHNOLOGY CO., LTD, priority 2019, dated 2025).
Where two headings read alike, the source gives them in different places.

Experiments:
Assay type in all cases: in vivo
Chilo suppressalis = test: Insecticidal activity against Chilo suppressalis, sprayed Oryza sativa seedlings/stalks; details: Chilo suppressalis, 72 h, 3 days after the treatment, 3rd instar larvae, read-out: lethality rate against Chilo suppressalis; for pest or weed control at 0.25 µg/mL: dose 0.25 mg/L; for pest or weed control at 0.5 µg/mL: dose 0.5 mg/L; for pest or weed control at 1 µg/mL: dose 1 mg/L
Procedure: (§1) After being dissolved in a mixed solvent of acetone/methanol (1:1), the test compound was diluted with water containing 0.1% (wt) Tween 80 to the desired concentration.
(§2) With Leucania separata, Plutella xylostella, and Chilo suppressalis as targets, airbrush spray method was used for the determination of the insecticidal activity.
Determination method: 1) Preparation of Oryza sativa seedlings: Oryza sativa was cultivated in a constant temperature room (a temperature of 26-28V, a relative humidity of about 60-80%, and a light illumination of 16 hL:8 hD) in a small plastic cup with a diameter of 4.5 cm and a height of 4 cm, and when the Oryza sativa grew up to the 4-5 leaf stage, robust and consistent Oryza sativa seedlings were selected for chemical treatment, and 3 repetitions were performed for each treatment. 2) Preparation for test insects: Chilo suppressalis at 3rd instar larvae were raised continuously indoors. 3) The Oryza sativa stems were sprayed and insects were introduced. Spraying was performed uniformly on the whole plant of the Oryza sativa seedlings, with 15 ml of compound solution for each treatment. The blank control was treated first, and then the above operations were repeated in the order of the test concentration from low to high. After the Oryza sativa seedlings were sprayed, they were placed in a cool place to dry the liquid, and about 5 cm of stalks at the base of the stems were cut and fed to the test insects. A glass petri dish with a diameter of 90 mm was placed with filter paper at the bottom of the dish, and then was moisturized by adding water. After that, about 5 rice stalks and 10 larvae were placed in each dish, and the petri dish was sealed with a non-woven fabric and placed in a constant temperature room for cultivation. The number of remaining live insects was investigated 3 days after the treatment.

Leucania separata = test: Insecticidal activity against Leucania separata, airbrush spray on corn leaf sections; details: Mythimna separata, 72 h; dose 0.05 mg/L, 3 days after the treatment, 3rd instar larvae; read-out: lethality rate against Leucania separata
Procedure: as §1, §2
(§3) Determination method: Corn leaves were cut into 2 cm leaf sections, and Airbrush spray treatment was carried out at a pressure of 10 psi (approximately 0.7 kg/cm^2) on the front and back sides of each leaf section, with a spray volume of the compound to be tested of 0.5 ml. After drying in the shade, 10 of 3rd instar larvae were introduced for each treatment, and each treatment was repeated 3 times. After the treatment, it was placed in an observation room at 25° C. and a relative humidity of 60-70%, and 3 days after the treatment, the number of surviving insects was investigated, and the mortality rate was calculated.

Plutella xylostella = test: Insecticidal activity against Plutella xylostella, airbrush spray on cabbage leaf discs; details: foliar, 72 h
Procedure: as §1, §2
as §3, with “Cabbage” for “Corn”, “punched” for “cut”, “into leaf discs with a diameter of” for “into”, “with a puncher,” for “leaf sections,”, “disc,” for “section,”, “times for.” for “times.”

[1] = dose 0.05 mg/L, 3 days after the treatment, 3rd instar larvae, read-out: lethality rate against Plutella xylostella
[2] = dose 0.5 mg/L, 3 days after the treatment, 3rd instar larvae, read-out: lethality rate against Plutella xylostella
[3] = dose 1 mg/L, 3 days after the treatment, 3rd instar larvae, read-out: lethality rate against Plutella xylostella

Row | Compound | pest or weed control at 0.25 µg/mL (Chilo suppressalis) [%] | pest or weed control at 0.5 µg/mL (Chilo suppressalis) [%] | pest or weed control at 1 µg/mL (Chilo suppressalis) [%] | pest or weed control at 0.05 µg/mL (Leucania separata) [%] | pest or weed control at 0.05 µg/mL (Plutella xylostella; [1]) [%] | pest or weed control at 0.5 µg/mL (Plutella xylostella; [2]) [%] | pest or weed control at 1 µg/mL (Plutella xylostella; [3]) [%] | pest or weed control at 0.05 µg/mL (Plutella xylostella; 0.05 mg/L, parallel comparison test, Table 5, read-out: Lethality rate (%, 3 days after the treatment) 0.05 mg/L) [%] | pest or weed control at 0.5 µg/mL (Plutella xylostella; 0.5 mg/L, parallel comparison test, Table 5, read-out: Lethality rate (%, 3 days after the treatment) 0.5 mg/L) [%] | pest or weed control at 1 µg/mL (Plutella xylostella; 1 mg/L, parallel comparison test, Table 5, read-out: Lethality rate (%, 3 days after the treatment) 1 mg/L) [%] | pest or weed control at 5 µg/mL (Plutella xylostella; 5 mg/L, parallel comparison test, Table 5, read-out: Lethality rate (%, 3 days after the treatment) 5 mg/L) [%]
1 | N#CCCCN(C(=O)c1ccc(F)nc1)c1cccc(C(=O)Nc2c(Br)cc(C(F)(C(F)(F)F)C(F)(F)F)cc2C(F)(F)F)c1F [Compound 11] | ≥ 90 | ≥ 90 | ≥ 90 | ≥ 90 | ≥ 90 | ≥ 90 | ≥ 90 |  |  |  | 
2 | N#CCCCCN(C(=O)c1ccc(F)nc1)c1cccc(C(=O)Nc2c(Br)cc(C(F)(C(F)(F)F)C(F)(F)F)cc2C(F)(F)F)c1F [Compound 12] | ≥ 90 | ≥ 90 | ≥ 90 | ≥ 90 | ≥ 90 | ≥ 90 | ≥ 90 |  |  |  | 
3 | N#CCN(C(=O)c1ccc(F)nc1)c1cccc(C(=O)Nc2c(I)cc(C(F)(C(F)(F)F)C(F)(F)F)cc2C(F)(F)F)c1F [Compound 13] | ≥ 90 | ≥ 90 | ≥ 90 | ≥ 90 | ≥ 90 | ≥ 90 | ≥ 90 |  |  |  | 
4 | N#CCCN(C(=O)c1ccc(F)nc1)c1cccc(C(=O)Nc2c(I)cc(C(F)(C(F)(F)F)C(F)(F)F)cc2C(F)(F)F)c1F [Compound 14] | ≥ 90 | ≥ 90 | ≥ 90 | ≥ 90 | ≥ 90 | ≥ 90 | ≥ 90 |  |  |  | 
5 | N#CCCCN(C(=O)c1ccc(F)nc1)c1cccc(C(=O)Nc2c(I)cc(C(F)(C(F)(F)F)C(F)(F)F)cc2C(F)(F)F)c1F [Compound 15] | ≥ 90 | ≥ 90 | ≥ 90 | ≥ 90 | ≥ 90 | ≥ 90 | ≥ 90 |  |  |  | 
6 | N#CCCCCN(C(=O)c1ccc(F)nc1)c1cccc(C(=O)Nc2c(I)cc(C(F)(C(F)(F)F)C(F)(F)F)cc2C(F)(F)F)c1F [Compound 16] | ≥ 90 | ≥ 90 | ≥ 90 | ≥ 90 | ≥ 90 | ≥ 90 | ≥ 90 |  |  |  | 
7 | N#CCN(C(=O)c1ccc(C(F)(F)F)nc1)c1cccc(C(=O)Nc2c(Br)cc(C(F)(C(F)(F)F)C(F)(F)F)cc2Br)c1F [Compound 17] |  |  | ≥ 90 | ≥ 90 |  |  | ≥ 90 |  |  |  | 
8 | N#CCN(C(=O)c1ccc(C(F)(F)F)nc1)c1cccc(C(=O)Nc2c(Br)cc(C(F)(C(F)(F)F)C(F)(F)F)cc2C(F)(F)F)c1F [Compound 25] | ≥ 90 | ≥ 90 | ≥ 90 | ≥ 90 |  | ≥ 90 | ≥ 90 |  |  |  | 
9 | N#CCCN(C(=O)c1ccc(C(F)(F)F)nc1)c1cccc(C(=O)Nc2c(Br)cc(C(F)(C(F)(F)F)C(F)(F)F)cc2C(F)(F)F)c1F [Compound 26] | ≥ 90 | ≥ 90 | ≥ 90 | ≥ 90 |  | ≥ 90 | ≥ 90 | 73.3 | 96.7 | 100 | 100
10 | N#CCCCCN(C(=O)c1ccc(C(F)(F)F)nc1)c1cccc(C(=O)Nc2c(Br)cc(C(F)(C(F)(F)F)C(F)(F)F)cc2C(F)(F)F)c1F [Compound 28] |  | ≥ 90 | ≥ 90 | ≥ 90 |  | ≥ 90 | ≥ 90 |  |  |  | 
11 | N#CCN(C(=O)c1ccc(C(F)(F)F)nc1)c1cccc(C(=O)Nc2c(I)cc(C(F)(C(F)(F)F)C(F)(F)F)cc2C(F)(F)F)c1F [Compound 29] | ≥ 90 | ≥ 90 | ≥ 90 | ≥ 90 |  | ≥ 90 | ≥ 90 |  |  |  | 
12 | N#CCCCCN(C(=O)c1ccc(C(F)(F)F)nc1)c1cccc(C(=O)Nc2c(I)cc(C(F)(C(F)(F)F)C(F)(F)F)cc2C(F)(F)F)c1F [Compound 32] |  | ≥ 90 | ≥ 90 | ≥ 90 |  | ≥ 90 | ≥ 90 |  |  |  | 
